Data taken from PMC11062899, “De novo development of small cyclic peptides that are orally bioavailable” (Nature Chemical Biology, 2023).

Molecular target: human α-thrombin (Homo sapiens, UniProt P00734)
Assay: Sub-library screen for active and permeable cyclic peptides (PAMPA plus thrombin inhibition)
Type: biochemical
Conditions: crude, slopes normalized to DMSO; for Residual thrombin activity: Top sample: PAMPA acceptor well after 14 h, 5 μM donor; for Residual thrombin activity: Equilibrated sample: donor sample diluted to theoretical equilibrium (1 μM in assay)
Method in brief: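 Acylated cyclic peptides at 5 μM in PBS pH 7.4 with 5% DMSO were run through PAMPA for 14 h at room temperature. Acceptor wells and a diluted donor sample at 3 μM, representing maximum permeability, were preincubated 10 min with human α-thrombin (6 nM stock). Z-Gly-Gly-Arg-AMC (150 μM stock) fluorescence was then read for 30 min at 25 °C, and inhibition was taken against a no-peptide control.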

Row | Compound | Residual thrombin activity: Top sample | Residual thrombin activity: Equilibrated sample
1 | N#Cc1ccc(C[C@@H]2NC(=O)[C@@H](NC(=O)c3ccc(Cl)s3)CCSCCS(=O)(=O)CCSCCNC(=O)C[C@H]3CCCN3C2=O)cc1 [C2-X35-L2] | 102.9 | 100.1
2 | N#Cc1ccc(C[C@@H]2NC(=O)[C@@H](NC(=O)c3ccc(Cl)s3)CCSCc3ccc(cc3)CSCCNC(=O)C[C@H]3CCCN3C2=O)cc1 [C2-X35-L3] | 101.8 | 100.4
3 | N#Cc1ccc(C[C@@H]2NC(=O)[C@@H](NC(=O)c3ccc(Cl)s3)CCSC/C=C/CSCCNC(=O)C[C@H]3CCCN3C2=O)cc1 [C2-X35-L4] | 100.5 | 100.3
4 | N#Cc1ccc(C[C@@H]2NC(=O)[C@@H](NC(=O)c3ccc(Cl)s3)CCSCc3cccc(c3)CSCCNC(=O)C[C@H]3CCCN3C2=O)cc1 [C2-X35-L5] | 106.2 | 101.3
5 | N#Cc1ccc(C[C@@H]2NC(=O)[C@@H](NC(=O)c3ccc(Cl)s3)CCSCc3ccccc3CSCCNC(=O)C[C@H]3CCCN3C2=O)cc1 [C2-X35-L6] | 90.0 | 91.7
6 | N#Cc1ccc(C[C@@H]2NC(=O)[C@@H](NC(=O)c3ccc(Cl)s3)CCSCC(=O)CSCCNC(=O)C[C@H]3CCCN3C2=O)cc1 [C2-X35-L7] | 103.0 | 104.7
7 | O=C1C[C@H]2CCCN2C(=O)[C@H](Cc2ccc(C(F)(F)F)cc2)NC(=O)[C@@H](NC(=O)c2ccc(Cl)s2)CCSCc2cccc(n2)CSCCN1 [C2-X36-L1] | 95.5 | 97.7
8 | O=C1C[C@H]2CCCN2C(=O)[C@H](Cc2ccc(C(F)(F)F)cc2)NC(=O)[C@@H](NC(=O)c2ccc(Cl)s2)CCSCCS(=O)(=O)CCSCCN1 [C2-X36-L2] | 101.5 | 101.8
9 | O=C1C[C@H]2CCCN2C(=O)[C@H](Cc2ccc(C(F)(F)F)cc2)NC(=O)[C@@H](NC(=O)c2ccc(Cl)s2)CCSCc2ccc(cc2)CSCCN1 [C2-X36-L3] | 95.8 | 101.3
10 | O=C1C[C@H]2CCCN2C(=O)[C@H](Cc2ccc(C(F)(F)F)cc2)NC(=O)[C@@H](NC(=O)c2ccc(Cl)s2)CCSC/C=C/CSCCN1 [C2-X36-L4] | 103.3 | 101.3
11 | O=C1C[C@H]2CCCN2C(=O)[C@H](Cc2ccc(C(F)(F)F)cc2)NC(=O)[C@@H](NC(=O)c2ccc(Cl)s2)CCSCc2cccc(c2)CSCCN1 [C2-X36-L5] | 106.2 | 106.1
12 | O=C1C[C@H]2CCCN2C(=O)[C@H](Cc2ccc(C(F)(F)F)cc2)NC(=O)[C@@H](NC(=O)c2ccc(Cl)s2)CCSCc2ccccc2CSCCN1 [C2-X36-L6] | 96.8 | 97.9
13 | O=C1CSCCNC(=O)C[C@H]2CCCN2C(=O)[C@H](Cc2ccc(C(F)(F)F)cc2)NC(=O)[C@@H](NC(=O)c2ccc(Cl)s2)CCSC1 [C2-X36-L7] | 102.7 | 104.5
14 | Cc1cccc(C[C@@H]2NC(=O)[C@@H](NC(=O)c3ccc(Cl)s3)CCSCc3cccc(n3)CSCCNC(=O)C[C@H]3CCCN3C2=O)c1 [C2-X37-L1] | 88.2 | 83.3
15 | Cc1cccc(C[C@@H]2NC(=O)[C@@H](NC(=O)c3ccc(Cl)s3)CCSCCS(=O)(=O)CCSCCNC(=O)C[C@H]3CCCN3C2=O)c1 [C2-X37-L2] | 97.6 | 73.7
16 | Cc1cccc(C[C@@H]2NC(=O)[C@@H](NC(=O)c3ccc(Cl)s3)CCSCc3ccc(cc3)CSCCNC(=O)C[C@H]3CCCN3C2=O)c1 [C2-X37-L3] | 100.6 | 94.8
